Experimental data published in patent US5610140A, “Bradykinin receptor antagonists with neurokinin receptor blocking activity” (priority 1994, dated 1997).
“Also recorded” adds a separate entry of the source. Where two headings read alike, the source gives them in different places. Values belong to the molecule of their own block, whether it stands above or below them. Square brackets hold non-standard residues; d marks the D form. Peptide text beside a SMILES is read from it. * marks the point of attachment. X5 = C[C@@H](O)[C@H](NC(=O)CCCN1C(=O)CC(*)C1=O)C(=O)N[C@H](Cc1cn(C=O)c2ccccc12)C(=O)N[C@@H](Cc1ccccc1)C(=O)N(C)Cc1ccccc1; Hyp = O=C(O)[C@@H]1C[C@@H](O)CN1

Experiments:
[1] = In vitro stability in human plasma; assay type: in vitro ADME
Protocol: (§1) Plasma samples were prepared by collection of whole blood from healthy male and female human volunteers or guinea pigs. Samples were collected into culture tubes containing sodium heparin, and were then spun at 4° C. at 2000 rpm for ten minutes. Supernatant fractions were removed by aspiration and stored in vials at -20° C. Rat or porcine lung and kidney cortical membranes were prepared using differential centrifugation. Membrane preparations were stored at -20° C. The test compound was diluted to 1 mM concentration in PBS (0.0132 M phosphate, 0.1454 M NaCl, pH 7.2). Ten microliters of this working solution were delivered into a series of Eppendorf tubes, followed by human or guinea pig plasma (90 uL) or PBS as a control blank, and incubated for various time periods. […] Supernatant fractions were removed, filtered through 0.22 uM filters (Millipore) and analyzed by HPLC (C18, 12-80% acetonitrile in water, both containing 0.1% trifluoroacetic acid, monitoring at 214 nm.
(§2) Porcine kidney preparations were diluted 1:10 with PBS; rat kidney preparations were diluted 1:100 with PBS. […] At various time points the reactions were quenched by the addition of 100 uL of ethanol, centrifuged and analyzed by HPLC as described above. The half-life for the disappearance of the HPLC peak was determined using the computer program ENZFIT (Elsevier). […]

[2] = In vitro stability in rat kidney cortical membranes; assay type: in vitro ADME; settings: Rat Kidney membrane preparation diluted 1:100 with PBS
Protocol: as §1, §2

[3] = In vitro stability in porcine kidney cortical membranes; assay type: in vitro ADME; settings: Pig Kidney membrane preparation diluted 1:10 with PBS
Protocol: as §1, §2

[4] = molecular target: T1, Neurokinin 1 (NK1) receptor (Cavia porcellus, UniProt P30547); settings: for NK1 pA2: agonist substance P-O-methyl ester
[5] = molecular target: T1, Neurokinin 1 (NK1) receptor; experiment: cell-based
Water solubility = assay type: physicochemical; settings: in the absence of organic co-solvents
NK1 receptors = NK1 receptors (Homo sapiens, UniProt P25103); settings: more potent than FK888; cited from earlier work
[6] = molecular target: T2, Bradykinin 2 (BK2) receptor (Rattus norvegicus, UniProt P25023)
T2 sequence (P25023 1-396): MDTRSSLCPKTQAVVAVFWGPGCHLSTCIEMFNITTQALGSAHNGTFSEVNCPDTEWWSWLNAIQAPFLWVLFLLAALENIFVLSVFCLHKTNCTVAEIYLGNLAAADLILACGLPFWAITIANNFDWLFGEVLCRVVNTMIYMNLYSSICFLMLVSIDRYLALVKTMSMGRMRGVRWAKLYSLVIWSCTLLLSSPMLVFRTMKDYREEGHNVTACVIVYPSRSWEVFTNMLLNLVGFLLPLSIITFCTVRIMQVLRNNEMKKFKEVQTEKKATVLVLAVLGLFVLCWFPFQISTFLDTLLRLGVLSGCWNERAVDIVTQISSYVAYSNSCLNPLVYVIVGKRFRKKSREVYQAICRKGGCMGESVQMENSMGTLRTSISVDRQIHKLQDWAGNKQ

[7] = molecular target: T2, Bradykinin 2 (BK2) receptor; experiment: cell-based
[8] = as reported in the literature; cited from earlier work
[9] = molecular target: T3, isolated guinea pig lung membrane (Cavia porcellus, UniProt P30547); settings: read-out: binding constant; cited from earlier work
T3 construct: host or cells: guinea pig lung membrane

[10] = cited from earlier work
[11] = guinea pig ileum, recovery of agonist response after wash-off

T1 sequence (P30547 whole entry): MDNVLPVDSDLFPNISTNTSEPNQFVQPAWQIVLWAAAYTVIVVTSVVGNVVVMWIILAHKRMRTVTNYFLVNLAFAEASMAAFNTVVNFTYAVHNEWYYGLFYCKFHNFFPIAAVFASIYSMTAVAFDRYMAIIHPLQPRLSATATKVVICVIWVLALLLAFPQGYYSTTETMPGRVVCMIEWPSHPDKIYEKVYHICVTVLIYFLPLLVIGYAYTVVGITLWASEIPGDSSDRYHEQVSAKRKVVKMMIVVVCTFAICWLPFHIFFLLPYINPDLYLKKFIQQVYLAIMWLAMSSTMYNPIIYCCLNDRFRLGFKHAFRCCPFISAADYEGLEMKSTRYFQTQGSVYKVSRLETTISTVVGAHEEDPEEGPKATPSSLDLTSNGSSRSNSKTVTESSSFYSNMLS
Chain of NK1 receptors (P25103 whole entry): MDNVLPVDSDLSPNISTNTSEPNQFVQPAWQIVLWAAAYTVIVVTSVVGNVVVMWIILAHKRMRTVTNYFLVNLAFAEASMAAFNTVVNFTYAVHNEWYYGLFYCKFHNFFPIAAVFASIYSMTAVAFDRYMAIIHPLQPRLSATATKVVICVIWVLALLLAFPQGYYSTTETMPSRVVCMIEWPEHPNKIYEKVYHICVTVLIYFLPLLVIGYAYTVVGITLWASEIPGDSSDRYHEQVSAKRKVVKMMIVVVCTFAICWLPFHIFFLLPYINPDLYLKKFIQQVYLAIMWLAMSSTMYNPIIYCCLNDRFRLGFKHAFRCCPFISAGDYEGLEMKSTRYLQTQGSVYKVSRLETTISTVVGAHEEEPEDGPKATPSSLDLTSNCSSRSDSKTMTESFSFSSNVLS
T3 sequence (P30547 whole entry): as the sequence (P30547 whole entry) above

SMILES: NC(N)=NCCC[C@H](NC(=O)[C@H](Cc1ccccc1)NC(=O)[C@@H]1CCCN1C(=O)[C@H](CO)NC(=O)[C@H](Cc1ccccc1)NC(=O)CNC(=O)[C@@H]1CCCN1C(=O)[C@@H]1CCCN1C(=O)[C@@H](N)CCCN=C(N)N)C(=O)O [Bradykinin] (H-RPPGFSPFR-OH)
- Half-life [1]: 27 min
- Half-life [2]: 7.8 min
- Half-life [3]: 3 min

- Half-life [1]: 165 min
- Half-life [2]: 39.6 min
- Half-life [3]: > 360 min
SMILES: CC(C)C[C@H](NC(=O)[C@@H](Cc1ccccc1)NC(=O)[C@H](CSC1CC(=O)N(CCCCCCN2C(=O)CC(SC[C@H](NC(=O)[C@H](Cc3ccccc3)NC(=O)CNC(=O)[C@@H]3C[C@@H](O)CN3C(=O)[C@@H]3CCCN3C(=O)[C@H](CCCNC(=N)N)NC(=O)[C@H](N)CCCNC(=N)N)C(=O)N[C@H](Cc3ccccc3)C(=O)N[C@@H](CC(C)C)C(=O)N[C@@H](CCCNC(=N)N)C(=O)O)C2=O)C1=O)NC(=O)[C@H](Cc1ccccc1)NC(=O)CNC(=O)[C@@H]1C[C@@H](O)CN1C(=O)[C@@H]1CCCN1C(=O)[C@H](CCCNC(=N)N)NC(=O)[C@H](N)CCCNC(=N)N)C(=O)N[C@@H](CCCNC(=N)N)C(=O)O (some centres unmarked) [CP-0127] (HELM PEPTIDE1{[dR].R.P.[Hyp].G.F.C.[dF].L.R}|PEPTIDE2{[dR].R.P.[Hyp].G.F.C.[dF].L.R}|CHEM1{[O=C1CC([*:1])C(=O)N1CCCCCCN1C(=O)CC([*:2])C1=O]}$PEPTIDE1,CHEM1,7:R3-1:R1|PEPTIDE2,CHEM1,7:R3-1:R2$$$V2.0)

SMILES: C[C@@H](O)[C@H](NC(=O)CCCCCN1C(=O)CC(SCCO)C1=O)C(=O)N[C@H](Cc1cn(C=O)c2ccccc12)C(=O)N[C@@H](Cc1ccccc1)C(=O)N(C)Cc1ccccc1 (some centres unmarked) [CP-0528]
- NK1 % recovery (wash-off) [4]: 80%
- Kb [5]: 316 nM

SMILES: C[C@@H](O)[C@H](NC(=O)CCCN1C(=O)CC(SCCO)C1=O)C(=O)N[C@H](Cc1cn(C=O)c2ccccc12)C(=O)N[C@@H](Cc1ccccc1)C(=O)N(C)Cc1ccccc1 (some centres unmarked) [CP-0529]
- NK1 % recovery (wash-off) [4]: 55%
- Kb [5]: 126 nM

- NK1 pA2 ([4]; guinea pig ileum): 6.3
- NK1 % recovery (wash-off) [4, 11]: 73%
SMILES: CN(Cc1ccccc1)C(=O)[C@H](Cc1ccccc1)NC(=O)[C@H](CCCCN)NC(=O)c1c[nH]c2ccccc12 [CP-0533]
- water solubility (Water solubility): poor solubility in water; also recorded: minimal water solubility

- water solubility (Water solubility): poor water solubility
- NK1 pA2 ([4]; guinea pig ileum): 7.5
- NK1 % recovery (wash-off) [4, 11]: 41%
SMILES: CN(Cc1ccccc1)C(=O)[C@H](Cc1ccc2ccccc2c1)NC(=O)[C@H](CCCCN)NC(=O)c1c[nH]c2ccccc12 [CP-0535]

SMILES: COc1ccccc1CN[C@H]1CCCN[C@H]1c1ccccc1 [CP-99994]
- potency relative to FK888 in binding studies (NK1 receptors): 10 times

SMILES: CC(C)C[C@H](NC(=O)[C@@H](Cc1ccccc1)NC(=O)[C@H](CSC1CC(=O)N(CCCC(=O)N[C@H](C(=O)N[C@H](Cc2cn(C=O)c3ccccc23)C(=O)N[C@@H](Cc2ccccc2)C(=O)N(C)Cc2ccccc2)[C@@H](C)O)C1=O)NC(=O)[C@H](Cc1ccccc1)NC(=O)CNC(=O)[C@@H]1C[C@@H](O)CN1C(=O)[C@@H]1CCCN1C(=O)[C@H](CCCNC(=N)N)NC(=O)[C@H](N)CCCNC(=N)N)C(=O)N[C@@H](CCCNC(=N)N)C(=O)O (some centres unmarked) [Compound 2] (H-[dR]RP[Hyp]GFC(X5)[dF]LR-OH)
- NK1 % recovery (wash-off) [4]: 48%
- BK2 % Recovery (wash-off) [6]: 20%
- Kb [5]: 126 nM
- Kb [7]: 6.31 nM

SMILES: CN(Cc1ccccc1)C(=O)[C@H](Cc1ccc2ccccc2c1)NC(=O)[C@@H]1C[C@@H](O)CN1C(=O)c1cn(C)c2ccccc12 [FK888]
- water solubility [8]: poor water solubility

SMILES: CC(=O)N[C@H](C(=O)N[C@H](Cc1c[nH]c2ccccc12)C(=O)N[C@@H](Cc1ccccc1)C(=O)N(C)Cc1ccccc1)[C@@H](C)O [FR113680, Ac-Thr-D-Trp-Phe-N(CH3)Bn, reference compound]
- NK1 % recovery (wash-off) [4]: 53%
- Ki [9]: 5.8 nM
- Kb [5]: 100 nM
- in vivo stability [10]: moderate in vivo stability
